Measurements: patent publication US20050288238A1, “Benzocyclodecane derivatives with antitumor activity” (Pfizer Inc, priority 2004, published 2005)

Target: T1, Pig brain tubulin (Sus scrofa, UniProt P02550+P02554)
T1 construct: Pig brain tubulin was prepared by two cycles of assembly and disassembly; from tissue; host or cells: pig brain
Experiment: Microtubule assembly and disassembly assay
Type: biochemical
Details: 0.5 mg/ml tubulin, 1 mM GTP, turbidity at 340 nm, reassembly after CaCl2 (5 mM)
Description: Microtubule assembly and disassembly assay.
Pig brain tubulin was prepared by two cycles of assembly and disassembly and it was stored in liquid nitrogen in Microtubule Assembly Buffer (MAB: 0.1 M MES, 2.5 mM EGTA, 0.5 mM MgSO4, 0.1 mM EDTA, 0.1 mM DTT pH 6.4). Assembly was monitored by the method of Gaskin et al. (Gaskin F, Cantor C R, Shelanski M L, 1974,: Turbidimetric studies of the in vitro assembly and disassembly of porcine neurotubules. J. Mol. Biol. 89: 737-758). The cuvette (1 cm path) containing 0.5 mg/ml tubulin and 1 mM GTP was shifted to 37° C. and continuous turbidity measurements were made at 340 nm on a spectrophotometer equipped with an automatic recorder and a thermostatically regulated sample chamber. After 30 min CaCl2 (5 mM) was added and disassembly was monitored for 10 min as decreased turbidity. Scalar doses of test compounds were monitored at regular intervals of 15 min.
(ED90) was calculated on this curve.

T1 sequence (P02550 whole entry): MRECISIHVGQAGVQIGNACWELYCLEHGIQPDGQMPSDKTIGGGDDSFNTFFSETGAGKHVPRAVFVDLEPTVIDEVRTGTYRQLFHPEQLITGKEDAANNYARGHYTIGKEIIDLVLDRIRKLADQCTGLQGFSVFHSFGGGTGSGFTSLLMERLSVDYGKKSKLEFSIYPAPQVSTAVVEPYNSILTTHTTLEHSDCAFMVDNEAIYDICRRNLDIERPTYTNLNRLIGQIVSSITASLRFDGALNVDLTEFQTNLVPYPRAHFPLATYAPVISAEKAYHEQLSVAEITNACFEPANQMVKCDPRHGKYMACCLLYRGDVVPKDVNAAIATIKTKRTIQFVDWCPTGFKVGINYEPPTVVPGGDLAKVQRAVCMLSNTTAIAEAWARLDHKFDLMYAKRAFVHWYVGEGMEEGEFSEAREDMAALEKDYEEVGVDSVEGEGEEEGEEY
T1 sequence (P02554 whole entry): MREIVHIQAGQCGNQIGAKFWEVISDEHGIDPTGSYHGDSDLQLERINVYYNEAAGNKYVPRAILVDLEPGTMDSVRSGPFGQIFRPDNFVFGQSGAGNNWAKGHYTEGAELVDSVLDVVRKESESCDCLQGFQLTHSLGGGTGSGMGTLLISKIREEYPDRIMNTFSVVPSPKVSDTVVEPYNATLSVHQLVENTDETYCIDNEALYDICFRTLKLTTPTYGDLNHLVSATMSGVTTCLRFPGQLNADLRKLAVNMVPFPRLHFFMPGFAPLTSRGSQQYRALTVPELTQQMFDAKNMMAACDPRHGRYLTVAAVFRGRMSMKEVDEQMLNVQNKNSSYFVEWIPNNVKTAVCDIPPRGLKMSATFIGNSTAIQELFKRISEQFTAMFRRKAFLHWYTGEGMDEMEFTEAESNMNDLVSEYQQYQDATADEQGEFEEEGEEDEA

In the case of CC(=O)OC1C/C=C\CC(OC(=O)/C=C/c2cn(C)cn2)Cc2ccccc2C1 (stereo not shown) [I^v a, 11-(Acetyloxy)-5,6,7,10,11,12-hexahydrobenzo[a][10]annulen-6-yl (2E)-3-(1-methyl-1H-imidazol-4-yl)prop-2-enoate], the “ED90 (dose effecting tubulin assembly by 90% at 37° C.)” value is reported as 10 µM.
